Counter-ions that a name gives are not always drawn.

One assay relates to isolated, donor-perfused rat hearts. As to the kind of experiment: inhibition of coronary vasoconstriction induced by acetylcholine 0.3 μg in isolated, donor-perfused rat hearts. Particulars: 30 μg, administered in the artery. As for the experimental part: The effect of the compounds of the present invention to inhibit coronary vasoconstriction was studied. That vasoconstriction was induced by acetylcholine 0.3 μg in isolated, donor-perfused rat hearts (K. Sakai, Brit. J. Pharmacol., 68, 625-638, 1980), and determined by measuring the arterial perfusion pressure with a pressure transducer (Nihon Kohden MPU--0.5). The compounds of the present invention were administered in the artery in an amount between 30 and 60 μg.
In the case of `CCOC(=O)c1ccc2c(c1)N(CCN(C)C)C(=O)c1cc(C(C)C)cc(C(C)C)c1O2` [Comp. of Ex. 1, 2,4-diisopropyl-10[2-(dimethylamino)ethyl]-8-ethoxycarbonyl-dibenz[b,f][1,4] oxazepine-11(10H)-one], the inhibition at 0.03 mg is at least 41%.

As to `CC(C)c1cc2c(c(C(C)C)c1)Oc1ccccc1N(CCN(C)C)C2=O` [Comp. of Ex. 2], the inhibition at 0.03 mg fell in the range of 31 to 40%.

As for `CC(C)c1cc2c(c(C(C)C)c1)Oc1ccccc1N(CCCN(C)C)C2=O` [Comp. of Ex. 3], the inhibition at 0.03 mg is at least 41%.

`COc1ccc2c(c1)N(CCCN(C)C)C(=O)c1cc(C(C)C)cc(C(C)C)c1O2` [Comp. of Ex. 5] yielded an inhibition at 0.03 mg of 20 to 30%.

In turn, `CCOC(=O)c1ccc2c(c1)N(CCN(C)C)C(=O)c1cc(C(C)(C)CC)ccc1O2` [Comp. of Ex. 8] showed an inhibition at 0.03 mg of 31 to 40%.

The compound `CCOC(=O)c1ccc2c(c1)N(CCCN(C)C)C(=O)c1cc(C(C)(C)CC)ccc1O2` [Comp. of Ex. 9] gave an inhibition at 0.03 mg of at least 41%.

The compound `CCC(C)(C)c1ccc2c(c1)C(=O)N(CCCN(C)C)c1ccccc1O2` [Comp. of Ex. 10] showed an inhibition at 0.03 mg of 20 to 30%.

Regarding `CCOC(=O)c1ccc2c(c1)N(CCCN(C)C)C(=O)c1cc(C(C)C)cc(C(C)C)c1O2` [Comp. of Ex. 14], the inhibition at 0.03 mg was in the range of 31 to 40%.

In turn, `CC(C)c1cc2c(c(C(C)C)c1)Oc1ccc(C(=O)O)cc1N(CCN(C)C)C2=O` [Comp. of Ex. 15, 2,4-diisopropyl-10-[2-(dimethylamino)ethyl]-8-carboxy-dibenz[b,f][1,4]-oxazepine-11(10H)-one hydrochloride] registered an inhibition at 0.03 mg of 20 to 30%.

The compound `CC(C)c1cc2c(c(C(C)C)c1)Oc1ccc(C(N)=O)cc1N(CCN(C)C)C2=O` [Comp. of Ex. 17, 2,4-diisopropyl-10-[2-(dimethylamino)ethyl]-8-carbamoyl-dibenz[b,f][1,4]oxazepine-11(10H)-one] returned an inhibition at 0.03 mg of 20 to 30%.

Still in this assay, the particulars now being: 60 μg, administered in the artery.
On to `COc1ccc2c(c1)N(CCN(C)C)C(=O)c1cc(C(C)C)cc(C(C)C)c1O2` [Comp. of Ex. 4], for which the inhibition at 0.06 mg was 20 to 30%.
